Measured values taken from patent publication US10421774B2 (priority 2016, dated 2019).

What was measured:
Assay in all cases: microbe, parasite or virus in culture
Assay type in all cases: cell-based, HIV-1
[1] = tested on: NLRepRlucP373S recombinant wild type (WT) virus; settings: Human immunodeficiency virus 1, MT2, read-out: WT EC50
Description: (§1) Cells. MT-2 cells and 293T cells were obtained from the NIH AIDS Research and Reference Reagent Program. Cell lines were sub-cultured twice a week in either RPMI 1640 (MT-2) or DMEM (293T, HeLa) media supplemented with 10% heat inactivated fetal bovine serum (FBS), 100 units/mL of penicillin G and 100 μg/mL of streptomycin. The DMEM medium was additionally supplemented with 10 mM HEPES buffer, pH 7.55, 2 mM L-glutamine and 0.25 μg/mL of amphotericin B.
(§2) Viruses. NLRepRluc virus contains the Renilla luciferase marker in place of the viral nef gene. The proviral plasmid pNLRepRluc was constructed at Bristol-Myers Squibb, starting from a proviral NL4-3 clone (B subtype) that was obtained from the NIH AIDS Research and Reference Reagent Program. The parental recombinant wild type (WT) virus (NLRepRlucP373S) was derived from NLRepRluc and contains the additional substitution of P373 for serine in Gag (within the SP1 spacer), the most common 373 variation in subtype B. Other recombinant viruses (A364V, V370A/ΔT371 and the “T3325 triple” (T332S/V362I+HIV-1 protease R41G)) were generated by site-directed mutagenesis of plasmid pNLRepRlucP373S to introduce those amino acid substitutions in Gag and protease. Recombinant virus DNA was then used to generate virus stocks by transfection of 293T cells (Lipofectamine PLUS kit, Invitrogen). Titers of virus stocks were determined using a luciferase assay (Dual-Luciferase® Reporter Assay System, Promega, Milwaukee, Wis., USA) endpoint.
(§3) Multiple cycle drug susceptibility assay. Pellets of MT-2 cells were infected with NLRepRlucP373S Gag site-directed viruses, where initial inocula of the reporter strains were normalized using equivalent endpoint luciferase activity signals. Such cell-virus mixtures were resuspended in medium, incubated for 1-hour at 37° C./CO2, and added to compound containing 96-well plates at a final cell density of 10,000 cells per well. The test compounds were 3-fold serially diluted in 100% DMSO, and assayed at a final DMSO concentration of 1%. After 4-5 day incubation at 37° C./CO2, virus yields were determined by Renilla luciferase activity (Dual-Luciferase® Reporter Assay System, Promega). The endpoint luminescence was detected on a Wallac Trilux (PerkinElmer).
(§4) The 50% inhibitory concentrations (EC50S) were calculated by using the exponential form of the median effect equation where Percent Inhibition=1/[1+(EC50/drug conc.^m], where m is a parameter that reflects the slope of the concentration-response curve. Background was taken as the residual signal observed upon inhibition at the highest concentration of a control protease inhibitor, NFV (3 μM).
as §4, with “The 90%” for “The 50%”, “concentrations (EC90S)” for “concentrations (EC50S)”, “where ECF=[(F/(100−F)]^1/H·EC50,” for “where Percent Inhibition=1/[1+(EC50/drug conc.^m],”, “where H” for “where m”

[2] = tested on: A364V site directed mutant virus; settings: Human immunodeficiency virus 1, MT2, read-out: A364V EC50
Description: as §1, §2, §3
(§5) HIV-1 NL4-3 expressing Renilla luciferase gene was converted to the gag V370A/ΔT371 virus by site directed mutagenesis. A364V is a site directed mutant.
(§6) All three recombinant viruses were used as described above in the HIV cell culture assay for the NL4-3 virus.

gag V370A/ΔT371 virus = settings: Human immunodeficiency virus 1, MT2, read-out: V370A/ΔT371 EC50
Description: as §1, §2, §3, §5, §6

[3] = tested on: T332S/V362I/Pr R41G virus; settings: Human immunodeficiency virus 1, MT2, read-out: T332S/V362I/pr41G EC50
Description: as §1, §2, §3
T332sN362I/Pr R41G (N14.3, B Clade) virus′ was obtained as follows: Selection for resistance of HIV-1 strain […] virus with the HIV maturation inhibitor (MI) compound
At passage 8 virus was harvested and sequenced.
as §6

Compound | EC50 [1] [µM] | EC50 [2] [µM] | EC50 (gag V370A/ΔT371 virus) [µM] | EC50 [3] [µM]
C=C(C)[C@@H]1CC[C@]2(NCCN3CCS(=O)(=O)CC3)CC[C@]3(C)[C@H](CC[C@@H]4[C@@]5(C)CC=C(C6=CCC(COc7ccccn7)(C(=O)O)CC6)C(C)(C)[C@@H]5CC[C@]43C)[C@@H]12 (stereo partly shown) [Example 1] | 0.003 | 0.011 | 0.017 | 0.014
C=C(C)[C@@H]1CC[C@]2(NCCN3CCS(=O)(=O)CC3)CC[C@]3(C)[C@H](CC[C@@H]4[C@@]5(C)CC=C(C6=CCC(COc7cc(-c8ccccc8)nn7C)(C(=O)O)CC6)C(C)(C)[C@@H]5CC[C@]43C)[C@@H]12 (stereo partly drawn) [Example 2, 4-((1R,3aS,5aR,5bR,7aR,11aS,11bR,13aR,13bR)-3a-((2-(1,1-dioxidothiomorpholino)ethyl)amino)-5a,5b,8,8,11a-pentamethyl-1-(prop-1-en-2-yl)-2,3,3a,4,5,5a,5b,6,7,7a,8,11,11a,11b,12,13,13a,13b-octadecahydro-1H-cyclopenta[a]chrysen-9-yl)-1-(((1-methyl-3-phenyl-1H-pyrazol-5-yl)oxy)methyl)cyclohex-3-ene-1-carboxylic acid] | 3 | 1.94 |  | 3
C=C(C)[C@@H]1CC[C@]2(NCCN3CCS(=O)(=O)CC3)CC[C@]3(C)[C@H](CC[C@@H]4[C@@]5(C)CC=C(C6=CCC(COc7cc(C(F)(F)F)n(C)n7)(C(=O)O)CC6)C(C)(C)[C@@H]5CC[C@]43C)[C@@H]12 (stereo partly shown) [Example 3] | 0.009 | 2.22 |  | 2.17
C=C(C)[C@@H]1CC[C@]2(NCCN3CCS(=O)(=O)CC3)CC[C@]3(C)[C@H](CC[C@@H]4[C@@]5(C)CC=C(C6=CCC(COc7nc(C(=O)O)cs7)(C(=O)O)CC6)C(C)(C)[C@@H]5CC[C@]43C)[C@@H]12 (stereo partly drawn) [Example 4, 2-((1-carboxy-4-((1R,3aS,5aR,5bR,7aR,11aS,11bR,13aR,13bR)-3a-((2-(1,1-dioxidothiomorpholino)ethyl)amino)-5a,5b,8,8,11a-pentamethyl-1-(prop-1-en-2-yl)-2,3,3a,4,5,5a,5b,6,7,7a,8,11,11a,11b,12,13,13a,13b-octadecahydro-1H-cyclopentatalchrysen-9-yl)cyclohex-3-en-1-yl)methoxy)thiazole-4-carboxylic acid] | > 0.05 | > 0.05 | > 0.05 | > 0.05
C=C(C)[C@@H]1CC[C@]2(NCCN3CCS(=O)(=O)CC3)CC[C@]3(C)[C@H](CC[C@@H]4[C@@]5(C)CC=C(C6=CCC(COc7nsnc7C)(C(=O)O)CC6)C(C)(C)[C@@H]5CC[C@]43C)[C@@H]12 (stereo partly drawn) [Example 5, 4-((1R,3aS,5aR,5bR,7aR,11aS,11bR,13aR,13bR)-3a-((2-(1,1-dioxidothiomorpholino)ethyl)amino)-5a,5b,8,8,11a-pentamethyl-1-(prop-1-en-2-yl)-2,3,3a,4,5,5a,5b,6,7,7a,8,11,11a,11b,12,13,13a,13b-octadecahydro-1H-cyclopenta[a]chrysen-9-yl)-1-(((4-methyl-1,2,5-thiadiazol-3-yl)oxy)methyl)cyclohex-3-ene-1-carboxylic acid] | 0.003 | 0.015 | 0.015 | 0.015
C=C(C)[C@@H]1CC[C@]2(NCCN3CCS(=O)(=O)CC3)CC[C@]3(C)[C@H](CC[C@@H]4[C@@]5(C)CC=C(C6=CCC(COc7cnsn7)(C(=O)O)CC6)C(C)(C)[C@@H]5CC[C@]43C)[C@@H]12 (stereo partly drawn) [Example 6, 1-(((1,2,5-thiadiazol-3-yl)oxy)methyl)-4-((1R,3aS,5aR,5bR,7aR,11aS,11bR,13aR,13bR)-3a-((2-(1,1-dioxidothiomorpholino)ethyl)amino)-5a,5b,8,8,11a-pentamethyl-1-(prop-1-en-2-yl)-2,3,3a,4,5,5a,5b,6,7,7a,8,11,11a,11b,12,13,13a,13b-octadecahydro-1H-cyclopenta[a]chrysen-9-yl)cyclohex-3-ene-1-carboxylic acid] | < 0.05 | > 0.05 | < 0.05 | < 0.05
C=C(C)[C@@H]1CC[C@]2(NCCN3CCS(=O)(=O)CC3)CC[C@]3(C)[C@H](CC[C@@H]4[C@@]5(C)CC=C(C6=CCC(COc7cnnn7CC)(C(=O)O)CC6)C(C)(C)[C@@H]5CC[C@]43C)[C@@H]12 (stereo partly shown) [Example 7] | 0.002 | 0.095 | 0.192 | 0.192
C=C(C)[C@@H]1CC[C@]2(NCCN3CCS(=O)(=O)CC3)CC[C@]3(C)[C@H](CC[C@@H]4[C@@]5(C)CC=C(C6=CCC(COc7nsc8ccccc78)(C(=O)O)CC6)C(C)(C)[C@@H]5CC[C@]43C)[C@@H]12 (stereo partly shown) [Example 8] | < 0.05 | < 0.05 | < 0.05 | < 0.05
C=C(C)[C@@H]1CC[C@]2(NCCN3CCS(=O)(=O)CC3)CC[C@]3(C)[C@H](CC[C@@H]4[C@@]5(C)CC=C(C6=CCC(COc7ccncc7)(C(=O)O)CC6)C(C)(C)[C@@H]5CC[C@]43C)[C@@H]12 (stereo partly drawn) [Example 9, 4-((1R,3aS,5aR,5bR,7aR,11aS,11bR,13aR,13bR)-3a-((2-(1,1-dioxidothiomorpholino)ethyl)amino)-5a,5b,8,8,11a-pentamethyl-1-(prop-1-en-2-yl)-2,3,3a,4,5,5a,5b,6,7,7a,8,11,11a,11b,12,13,13a,13b-octadecahydro-1H-cyclopenta[a]chrysen-9-yl)-1-((pyridin-4-yloxy)methyl)cyclohex-3-ene-1-carboxylic acid] | 0.002 | 0.035 |  | 0.014
C=C(C)[C@@H]1CC[C@]2(NCCN3CCS(=O)(=O)CC3)CC[C@]3(C)[C@H](CC[C@@H]4[C@@]5(C)CC=C(C6=CCC(COc7cccnc7)(C(=O)O)CC6)C(C)(C)[C@@H]5CC[C@]43C)[C@@H]12 (stereo partly drawn) [Example 10, 4-((1R,3aS,5aR,5bR,7aR,11aS,11bR,13aR,13bR)-3a-((2-(1,1-dioxidothiomorpholino)ethyl)amino)-5a,5b,8,8,11a-pentamethyl-1-(prop-1-en-2-yl)-2,3,3a,4,5,5a,5b,6,7,7a,8,11,11a,11b,12,13,13a,13b-octadecahydro-1H-cyclopenta[a]chrysen-9-yl)-1-((pyridin-3-yloxy)methyl)cyclohex-3-enecarboxylic acid] | 0.002 | 0.027 |  | 0.006
C=C(C)[C@@H]1CC[C@]2(NCCN3CCC(S(C)(=O)=O)CC3)CC[C@]3(C)[C@H](CC[C@@H]4[C@@]5(C)CC=C(C6=CCC(COc7cccnc7)(C(=O)O)CC6)C(C)(C)[C@@H]5CC[C@]43C)[C@@H]12 (stereo partly drawn) [Example 11, 4-((1R,3aS,5aR,5bR,7aR,11aS,11bR,13aR,13bR)-5a,5b,8,8,11a-pentamethyl-3a-((2-(4-(methylsulfonyl)piperidin-1-yl)ethyl)amino)-1-(prop-1-en-2-yl)-2,3,3a,4,5,5a,5b,6,7,7a,8,11,11a,11b,12,13,13a,13b-octadecahydro-1H-cyclopenta[a]chrysen-9-yl)-1-((pyridin-3-yloxy)methyl)cyclohex-3-enecarboxylic acid] | 0.002 | 0.018 |  | 0.008
C=C(C)[C@@H]1CC[C@]2(NCCN3CCS(=O)(=O)CC3)CC[C@]3(C)[C@H](CC[C@@H]4[C@@]5(C)CC=C(C6=CCC(COc7cc(C)sn7)(C(=O)O)CC6)C(C)(C)[C@@H]5CC[C@]43C)[C@@H]12 (stereo partly shown) [Example 12] | < 0.05 | < 0.05 | < 0.05 | < 0.05
